1 compound from article PMC8297771 (PLoS Pathogens, 2021) can be followed below.

The test system of data set [1] is HIV-1_89.6 passage 14 viral population (Y99H and A128T). The data set is described as follows: Susceptibility of STP0404-selected viral population, passage 14, in CEMx174 cells. The following applies: passage 14 viral population (Y99H and A128T) vs wild type HIV-1_89.6. The data set is classed as cell-based. The procedure:
CEM x174 cells infected with HIV primary isolate 89.6 were cultured in the presence of STP0404 at the concentration of IC90 determined earlier. At each passage, cells from original culture in the presence of inhibitor (0.75x10^6 cells) were mixed with equal amount of no-drug control cells to propagate, and viral replication was monitored by the production of p24 antigen in the supernatant. […] The population of drug-induced mutations at each passage mentioned above was determined by sequencing of at least 10 resulting transformants.
CEM x174 cells were infected with cell-free viral supernatant collected during virus resistance assays above. […] The viral stocks were normalized by the amount of p24 capsid antigen, determined to infect CEMx174 cells at approximately 10% of populations (10,000 pg / 10^6 cells). […] Cell-free supernatants were measured for p24 antigen production 5 days post-infection. p89.6 plasmid was applied for Quickchange kit (Invitrogen) to create Y99H single, A128T single, Y99H/A128T double mutants as well as two natural variants (A124N and T125A), and these 89.6 variant viruses were generated by transfecting 293T cells and culturing the produced viruses in CEMx174 cells. The IC50 of STP0404 against respective viruses were analyzed using GraphPad Prism (Version 9) and presented as means ± S.D. of triplicates. […]

Another data set concerns CHL/IU cells. Description: Chromosomal aberration test in cultured mammalian cells (GLP). The class given is cell-based. The following applies: 25~140 μg/mL. The protocol: Bacterial reverse mutation assay (Study no. YL18407). The bacterial reverse mutation assay of STP0404 was performed in two conditions (with or without metabolic activation) for the dose range-finding test (doses of STP0404rangingfrom 2.29 to 5,000μg/plate) and the main test (doses of STP0404 ranging from 19.5 to 5,000 μg/plate) in comparison with negative control (DMSO) and active controls (sodium azide, 2-(2-furyl)-3-(5-nitro-2-furyl) acrylamide, 2-aminoanthracene, 9-aminoacridine hydrochloride). Salmonella typhimurium (TA100, TA1535) and Escherichia coli (WP2uvrA) were used for detection of base-pair substitutions. Salmonella typhimurium (TA98, TA1537) was used for detection of frameshift mutations. Chromosomal Aberration Test of STP0404 in Cultured Mammalian Cells (Study no. YL18408). Presence/absence of genotoxicity of STP0404 was determined using chromosomal aberration test carried out in CHL/IU cells. The test comprised a dose range-finding test and a main test. Micronucleus Study of STP0404 by oral administration in Rats (Study no. YL18409). STP0404 was administered orally to SD rats (3/group in preliminary test and 6/group in the main test) at dose levels of 500, 1000 and 2000 mg/kg/day once daily for 2 days in a two-test study (preliminary test and main test) to investigate the genotoxicity profile of STP0404. […] Bone marrow smear slides were evaluated (INA Research, Japan).

Data set [2] can be described thus: In vivo pharmacokinetics in beagle dogs. The following applies: male, plasma, Dog. The protocol: Study design: […]). Group 1 was dosed with STP0404 at 1 mg/kg by single intravenous administration. Groups 2 to 4 were dosed with STP0404 at 20, 40 and 80 mg/kg, respectively, by single oral administration. The vehicle used for IV study was DMSO: PEG400: […] Blood samples were collected at 0.0833, 0.25, 0.5, 1, 2, 4, 8, 12 (only for PO groups) and 24 hrs post-dose for Groups 1 to 4. STP0404 concentrations in plasma samples were determined by LC-MS/MS. Preclinical Dog pharmacokinetics study (Study no. 400751-2015020201-DPK): A total of 6 male Beagle dogs were divided into two groups (3 animals/group). Following single STP0404 2 mg/kg oral and intravenous administration to Beagle Dogs, STP0404 concentration was determined in plasma, and pharmacokinetic parameters were calculated. […] The concentrations of STP0404 in plasma were determined by using a LC/MS/MS method.

The nature of data set [3]: Safety pharmacology: effects on the cardiovascular system in dogs. The following applies: oral 30, 60 and 90 mg/kg. The data set is classed as in vivo. The procedure: (§1) Effects on the Respiratory System in Rats (Study no. YL18404). Four groups of eight male rats were given a single oral administration of STP0404 at doses of 100, 300 and 600 mg/kg. STP0404 was administered as a suspension in 0.5% MC in a volume of 10 mL/kg. […] Measurements were conducted at pre-dosing and 0.5, 1, 3, 6 12 and 24 hrs post-dosing, and respiratory rate, tidal volume and minute volume were investigated (INA Research, Japan). Effects on the Central Nervous System in Rats (Study no. YL18405). Four groups of six male rats were given a single oral administration of STP0404 at doses of 0 (vehicle), 100, 300 and 600 mg/kg. The test article was administered as a suspension in 0.5% MC in a volume of 10 mL/kg. […] Blinded observations were conducted pre-dosing and 0.5, 1, 3, 6, 12 and 24 hrs post-dosing on rats body temperature, pupil size, landing foot-splay and grip strength in functional observational battery. Effects on the Cardiovascular System in Dogs (Study no. YL18406). STP0404 at dose levels of 30, 60 and 90 mg/kg were administered orally (by capsules) to four male Beagle dogs in a design with 7-day intervals between doses. Heart rate, blood pressure (systolic, diastolic and mean) and electrocardiographic (ECG) parameters (PR, QT and QTc intervals and QRS duration) were evaluated at pre-dosing and 0.5, 1, 2, 4, 8 and 24 hrs post-dosing. […]

A short description of data set [4]: Safety pharmacology: effects on the central nervous system in rats. The following applies: single oral 100, 300 and 600 mg/kg. The data set is classed as in vivo. The protocol: as §1
For another data set, the system named is MT4 cells. Description: Tissue culture cytotoxicity measurement in MT4 cells. The data set is classed as cell-based. From the text:
Fig 1 ALLINI structures and STP0404 activities. […] Pyridine-based KF116, D. Pyrrolopyridine-based STP0404. The conserved chemical moiety containing tert-butoxy and carboxylic acid groups are marked by “]”.

`Cc1nc2c(c(C)c(C)n2Cc2cnn(C)c2)c(-c2ccc(Cl)cc2)c1[C@H](OC(C)(C)C)C(=O)O` [STP0404] registered an IC50 fold increase in data set [1] of 61.4 fold. Besides, the chromosomal aberration-inducing potential entry in the data set with CHL/IU cells is on record as “lacked”. In data set [2] (iv, 2 mg/kg (i.v)), the AUC (commonly the area under the concentration-time curve, a measure of exposure) turned out to be 9.26 µM·h and the half-life (as a rule, the time in which the quantity being followed falls by half) was 6.11 h. In addition, in data set [2] (po, 2 mg/kg (p.o)), the AUC was 4.68 µM·h, the peak level (Cmax) was 3.98 µM and the half-life was 6.9 h. In addition, in data set [2] (po, 2 mg/kg (p.o), read-out: Ft (oral bioavailability)), the bioavailability – broadly, the share of a dose that reaches the circulation, judged against a reference dose that is usually intravenous – amounted to 50.6%. In addition, in data set [3], the “safety pharmacology concerns, cardiovascular system” value was “did not induce any safety pharmacology concerns”. For the same compound, the “safety pharmacology concerns, central nervous system” value in data set [4] was “did not induce any safety pharmacology concerns”. Besides, the TC50 in the data set with MT4 cells is reported as > 10,000 nM.
